The target in one experiment is T1, MycC Protein (Homo sapiens, UniProt P01106).
T1 construct: endogenous in cells; host or cells: HL-60 or SKNBE2
Nature of the experiment: Degradation of MycC protein, Western blot band density in cells. It is filed as cell-based. Particulars: HL-60 or SKNBE2 cells; 6 uL of compound (1 mM) added to 3 mL cells; 6 hours; Western blot band density (ImageJ). An outline of the steps: (§1)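 HL-60 leukemia or SKNBE2 neuroblastoma cells (3×10^6 per well, passages below 40) were exposed for 6 h to compound added from a 1 mM stock. RIPA lysates (25-30 ug protein) were run on SDS-PAGE and immunoblotted for c-Myc or MycN. Band density was quantified from the western images.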

The next experiment concerns the target T2, MycN Protein (Homo sapiens, UniProt P04198).
T2 construct: endogenous in cells; host or cells: HL-60 or SKNBE2
T2 sequence (P04198 1-464): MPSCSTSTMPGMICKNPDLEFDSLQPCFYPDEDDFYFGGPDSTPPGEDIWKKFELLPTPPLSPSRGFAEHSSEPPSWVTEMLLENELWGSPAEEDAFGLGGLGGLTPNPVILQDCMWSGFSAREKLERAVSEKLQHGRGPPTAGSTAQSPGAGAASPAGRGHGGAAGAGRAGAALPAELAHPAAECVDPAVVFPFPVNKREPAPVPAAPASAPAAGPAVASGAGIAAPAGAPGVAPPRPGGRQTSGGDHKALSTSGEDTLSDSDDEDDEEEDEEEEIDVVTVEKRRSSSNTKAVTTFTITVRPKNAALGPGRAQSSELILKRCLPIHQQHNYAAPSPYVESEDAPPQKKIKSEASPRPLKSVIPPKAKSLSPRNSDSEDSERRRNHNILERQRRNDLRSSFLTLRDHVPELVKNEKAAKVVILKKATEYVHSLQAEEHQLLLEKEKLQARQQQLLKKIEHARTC
Nature of the experiment: Degradation of MycN protein, Western blot band density in cells. Format: cell-based. Particulars: HL-60 or SKNBE2 cells; 6 uL of compound (1 mM) added to 3 mL cells; 6 hours; Western blot band density (ImageJ). Put shortly: as §1
On the technique in general: Immunoblotting shows a protein as a band on a membrane.

Each structure is given as a SMILES string.

T1 sequence (P01106 whole entry): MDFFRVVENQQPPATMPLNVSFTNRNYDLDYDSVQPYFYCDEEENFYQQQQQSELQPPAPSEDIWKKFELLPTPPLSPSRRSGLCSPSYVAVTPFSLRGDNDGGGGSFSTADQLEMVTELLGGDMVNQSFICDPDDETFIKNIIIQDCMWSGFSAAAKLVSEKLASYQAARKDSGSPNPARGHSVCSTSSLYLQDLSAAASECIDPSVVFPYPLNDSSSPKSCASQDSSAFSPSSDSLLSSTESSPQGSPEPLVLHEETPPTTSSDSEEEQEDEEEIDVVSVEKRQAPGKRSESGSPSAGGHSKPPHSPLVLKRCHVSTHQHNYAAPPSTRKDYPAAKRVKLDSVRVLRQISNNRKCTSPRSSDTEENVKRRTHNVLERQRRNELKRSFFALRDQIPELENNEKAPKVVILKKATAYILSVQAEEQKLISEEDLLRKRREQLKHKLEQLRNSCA

One may read the Dmax as the largest share of the target that was removed. Low values mean shallow degradation, high ones deep degradation. Regarding `O=C(NC1CCN(Cc2ccccn2)CC1)N[C@H]1CC[C@H](Nc2nccc(Nc3cc(C4CCOC4)[nH]n3)n2)CC1` (stereo partly drawn) [Compound 74, 1-(1-(pyridin-2-ylmethyl)piperidin-4-yl)-3-((1R,4R)-4-((4-((5-(tetrahydrofuran-3-yl)-1H-pyrazol-3-yl)amino)pyrimidin-2-yl)amino)cyclohexyl)urea], the values for the greatest degradation seen (Dmax) at 2 µM on MycC Protein and on MycN Protein were less than 20% and 20 to 49%, respectively.
In the case of `O=C(NC1CCN(Cc2ncccn2)CC1)N[C@H]1CC[C@H](Nc2nccc(Nc3cc(C4CCCC4)[nH]n3)n2)CC1` [Compound 75], the Dmax at 2 µM is 20 to 49% on MycC Protein and less than 20% on MycN Protein.
As for `O=C(NC1CCC(Nc2nccc(Nc3cc(C4CCCC4)[nH]n3)n2)CC1)NC1CC2(C1)CN(C1CC1)C2` [Compound 77, 1-((1R,4R)-4-((4-((5-cyclopentyl-1H-pyrazol-3-yl)amino)pyrimidin-2-yl)amino)cyclohexyl)-3-(2-cyclopropyl-2-azaspiro[3.3]heptan-6-yl)urea], the greatest degradation seen (Dmax) at 2 µM at MycC Protein was 20 to 49%; on MycN Protein it was less than 20%.
The corresponding values for `O=C(NC1CCC(Nc2nccc(Nc3cc(C4CCCC4)[nH]n3)n2)CC1)NC1CCN(C2CC2)C1` [Compound 79, 1-((1R,4R)-4-((4-((5-cyclopentyl-1H-pyrazol-3-yl)amino)pyrimidin-2-yl)amino)cyclohexyl)-3-(1-cyclopropylpyrrolidin-3-yl)urea] are 20 to 49% and less than 20%.
For `[H]/N=C(\Nc1cccc(C(F)(F)F)c1)N[C@H]1CC[C@H](Nc2nccc(Nc3cc(C4CCCC4)[nH]n3)n2)CC1` [Compound 81, 1-((1R,4R)-4-((4-((5-cyclopentyl-1H-pyrazol-3-yl)amino)pyrimidin-2-yl)amino)cyclohexyl)-3-(3-(trifluoromethyl)phenyl)guanidine], the results for the Dmax at 2 µM at MycC Protein and on MycN Protein were 80 to 100% and less than 20%, respectively.
`C/N=C(\Nc1cccc(C(F)(F)F)c1)N[C@H]1CC[C@H](Nc2nccc(Nc3cc(C4CCCC4)[nH]n3)n2)CC1` [Compound 83]: the greatest degradation seen (Dmax) at 2 µM on MycC Protein and on MycN Protein was less than 20% throughout.
For the molecule `FC(F)(F)C/N=C(\NC1CCOCC1)N[C@H]1CC[C@H](Nc2nccc(Nc3cc(C4CCCC4)[nH]n3)n2)CC1` [Compound 84], the Dmax at 2 µM at MycC Protein and at MycN Protein was less than 20% in each case.
With `N#Cc1cccc(NC(=N)N[C@H]2CC[C@H](Nc3nccc(Nc4cc(C5CCCC5)[nH]n4)n3)CC2)c1` [Compound 87, 1-(3-cyanophenyl)-3-((1R,4R)-4-((4-((5-cyclopentyl-1H-pyrazol-3-yl)amino)pyrimidin-2-yl)amino)cyclohexyl)guanidine], the “% Degradation of MycC” value at MycC Protein was “** (**: degradation 20-49%)”. The “% Degradation of MycN” value at MycN Protein is on record as “** (**: degradation 20-49%)”.
Regarding `O=C(Nc1cccc(C(F)(F)F)c1)N[C@H]1C[C@H](Nc2nccc(Nc3cc(C4CCCC4)[nH]n3)n2)C1` [Compound 96], the Dmax at 2 µM on MycC Protein and at MycN Protein was 20 to 49% each time.
With `O=C(NC1Cc2ccncc2C1)N[C@H]1CC[C@H](Nc2nccc(Nc3cc(C4CCCC4)[nH]n3)n2)CC1` (stereo partly drawn) [Compound 101, 1-((1R,4R)-4-((4-((5-cyclopentyl-1H-pyrazol-3-yl)amino)pyrimidin-2-yl)amino)cyclohexyl)-3-(6,7-dihydro-5H-cyclopenta[c]pyridin-6-yl)urea], the maximal degradation (Dmax) at 2 µM was 80 to 100% at MycC Protein and less than 20% at MycN Protein.
Take `O=C(NC1CC(c2ccccc2)C1)N[C@H]1CC[C@H](Nc2nccc(Nc3cc(C4CCOC4)[nH]n3)n2)CC1` (stereo partly drawn) [Compound 102, 1-((1R,3R)-3-phenylcyclobutyl)-3-((1,4R)-4-((4-((5-(tetrahydrofuran-3-yl)1H-pyrazol-3-yl)amino)pyrimidine-2-yl)amino)cyclohexyl)urea]: the Dmax at 2 µM on MycC Protein and at MycN Protein was less than 20% each time.
Consider `Cc1cc(Nc2ccnc(N[C@H]3CC[C@H](NC(=O)NC4CCN(C(=O)C5CC5)CC4)CC3)n2)n[nH]1` [Compound 103, 1-(1-(cyclopropanecarbonyl)piperidin-4-yl)-3-((1R,4R)-4-((4-((5-methyl-1H-pyrazol-3-yl)amino)pyrimidin-2-yl)amino)cyclohexyl)urea], for which the Dmax at 2 µM at MycC Protein and on MycN Protein was less than 20% in each case.
Consider `Cc1cc(Nc2ccnc(N[C@H]3CC[C@H](NC(=O)N[C@@H]4CCC[C@H](C(F)(F)F)C4)CC3)n2)n[nH]1` [Compound 104, 1-((1R,4R)-4-((4-((5-methyl-1H-pyrazol-3-yl)amino)pyrimidin-2-yl)amino)cyclohexyl)-3-((1R,3S)-3-(trifluoromethyl)cyclohexyl)urea], for which the Dmax at 2 µM at MycC Protein is less than 20%; on MycN Protein, 20 to 49%.
For `CO[C@H]1c2ccccc2C[C@H]1NC(=O)N[C@H]1CC[C@H](Nc2nccc(Nc3cc(C)[nH]n3)n2)CC1` [Compound 105, 1-((1S,2R)-1-methoxy-2,3-dihydro-1H-inden-2-yl)-3-((1R,4R)-4-((4-((5-methyl-1H-pyrazol-3-yl)amino)pyrimidin-2-yl)amino)cyclohexyl)urea], the greatest degradation seen (Dmax) at 2 µM on MycC Protein and at MycN Protein was less than 20% each time.
Consider `CN1CC(NCc2ccc3c(c2)CC(NC(=O)N[C@H]2CC[C@H](Nc4nccc(Nc5cc(C6CCCC6)[nH]n5)n4)CC2)C3)C1` (some centres unmarked) [Compound 107], for which the values for the Dmax at 2 µM at MycC Protein and on MycN Protein were 50 to 79% and less than 20%, respectively.
Consider `C/N=C(\Nc1cccc(C(F)(F)F)c1)N[C@H]1CC[C@H](Nc2nccc(Nc3cc(C)[nH]n3)n2)CC1` [Compound 112], for which the greatest degradation seen (Dmax) at 2 µM on MycC Protein and at MycN Protein was less than 20% each time.
On to `Cc1cc(Nc2ccnc(N[C@H]3CC[C@H](NC(=O)NC4Cc5ccc(S(C)(=O)=O)cc5C4)CC3)n2)n[nH]1` (some centres unmarked) [Compound 115], for which the greatest degradation seen (Dmax) at 2 µM at MycC Protein and at MycN Protein was less than 20% each time.
Regarding `O=C(N[C@@H]1CCC[C@@H](C(F)(F)F)C1)N[C@H]1CC[C@H](Nc2nccc(Nc3cc(C4CCCC4)[nH]n3)n2)CC1` [Compound 119], the Dmax at 2 µM on MycC Protein and at MycN Protein was less than 20% throughout.
With `Cc1cc(Nc2ccnc(N[C@H]3CC[C@H](NC(=O)N[C@@H]4CCC[C@@H](C(F)(F)F)C4)CC3)n2)n[nH]1` [Compound 120], the Dmax at 2 µM on MycC Protein and at MycN Protein was less than 20% in each case.
As for `CN(c1nccc(Nc2cc(C3CCCC3)[nH]n2)n1)C1CCC(NC(=O)N[C@H]2CCC[C@@H](C(F)(F)F)C2)CC1` (stereo partly drawn) [Compound 121 (Fraction 1), 1-((1R,4S)-4-((4-((5-cyclopentyl-1H-pyrazol-3-yl)amino)pyrimidin-2-yl)(methyl)amino)cyclohexyl)-3-((1S,3R)-3-(trifluoromethyl)cyclohexyl)urea], the “% Degradation of MycC” value on MycC Protein is given as “*** (***: degradation 50-79%)”. Besides, the “% Degradation of MycN” value on MycN Protein is “*** (***: degradation 50-79%)”.
Take `CN(c1nccc(Nc2cc(C3CCCC3)[nH]n2)n1)C1CCC(NC(=O)N[C@H]2CCC[C@@H](C(F)(F)F)C2)CC1` (stereo partly drawn) [Compound 121 (Fraction 2), 1-((1R,4S)-4-((4-((5-cyclopentyl-1H-pyrazol-3-yl)amino)pyrimidin-2-yl)(methyl)amino)cyclohexyl)-3-((1S,3R)-3-(trifluoromethyl)cyclohexyl)urea]: the “% Degradation of MycC” value at MycC Protein is given as “** (**: degradation 20-49%)”. Further, the “% Degradation of MycN” value on MycN Protein is “*** (***: degradation 50-79%)”.
`CN(c1nccc(Nc2cc(C3CC3)[nH]n2)n1)[C@H]1CC[C@H](NC(=O)NC2Cc3ccc(C#N)cc3C2)CC1` (stereo partly drawn) [Compound 142, 1-(5-cyano-2,3-dihydro-1H-inden-2-yl)-3-((1R,4R)-4-((4-((5-cyclopropyl-1H-pyrazol-3-yl)amino)pyrimidin-2-yl)(methyl)amino)cyclohexyl)urea]: the greatest degradation seen (Dmax) at 2 µM at MycC Protein and on MycN Protein was 80 to 100% in each case.
`CN(C(=O)NC1Cc2ccc(C#N)cc2C1)[C@H]1CC[C@H](N(C)c2nccc(Nc3cc(C4CCCC4)[nH]n3)n2)CC1` (stereo partly drawn) [Compound 143, 3-(5-cyano-2,3-dihydro-1H-inden-2-yl)-1-((1R,4R)-4-((4-((5-cyclopentyl-1H-pyrazol-3-yl)amino)pyrimidin-2-yl)(methyl)amino)cyclohexyl)-1-methylurea]: the greatest degradation seen (Dmax) at 2 µM at MycC Protein and on MycN Protein was 50 to 79% each time.
In the case of `CN(c1nccc(Nc2cc(C3CCC3)[nH]n2)n1)[C@H]1CC[C@H](NC(=O)NC2Cc3ccc(C#N)cc3C2)CC1` (stereo partly drawn) [Compound 144, 1-(5-cyano-2,3-dihydro-1H-inden-2-yl)-3-((1R,4R)-4-((4-((5-cyclobutyl-1H-pyrazol-3-yl)amino)pyrimidin-2-yl)(methyl)amino)cyclohexyl)urea], the figures for the Dmax at 2 µM on MycC Protein and on MycN Protein were 80 to 100% and 50 to 79%, respectively.
The corresponding values for `CN(c1nccc(Nc2cc(C3CC(F)(F)C3)[nH]n2)n1)[C@H]1CC[C@H](NC(=O)NC2Cc3ccc(C#N)cc3C2)CC1` (stereo partly drawn) [Compound 145, 1-(5-cyano-2,3-dihydro-1H-inden-2-yl)-3-((1R,4R)-4-((4-((5-(3,3-difluorocyclobutyl)-1H-pyrazol-3-yl)amino)pyrimidin-2-yl)(methyl)amino)cyclohexyl)urea] are 50 to 79% and 80 to 100%.

The record behind these values is patent US20210369710A1, “MODULATORS OF MYC FAMILY PROTO-ONCOGENE PROTEIN” (Nalo Therapeutics, priority 2019, published 2021).
